These results are taken from patent US20080176882A1, “SALTS OF 3-(3-AMINO-2-(R)-HYDROXY-PROPYL)-1-(4-FLUORO-PHENYL)-8-(8-METHYL-NAPHTHALEN-1-YLMETHYL)-1,3,8-TRIAZA-SPIRO[4.5]DECAN-4-ONE” (priority 2006, published 2008).

The data set in a line: DVS (Differential Vapor Sorption) measurements of hygroscopicity. It is filed as physicochemical. The settings on record: salt forms of the compound of formula (Is). The source says:
In an embodiment, the present invention is directed to a hydrochloride salt of the compound of formula (Is). In another embodiment of the present invention, the hydrochloride salt of the compound of formula (Is) is mono-hydrochloride or di-hydrochloride salt of the compound of formula (Is). In another embodiment of the present invention, the mono-hydrochloride and di-hydrochloride salts of the compound of formula (Is) are crystalline. DVS measurements completed on the mono-hydrochloride and di-hydrochloride salts of the compound of formula (Is) indicate that both of these salt forms are hygroscopic.

Where a name gives a salt, the structure may show the parent alone.

Consider `Cc1cccc2cccc(CN3CCC4(CC3)C(=O)N(C[C@H](O)CN)CN4c3ccc(F)cc3)c12` [mono-hydrochloride, 3-(3-amino-2-(R)-hydroxy-propyl)-1-(4-fluoro-phenyl)-8-(8-methyl-naphthalen-1-ylmethyl)-1,3,8-triaza-spiro[4.5]decan-4-one], for which the “hygroscopicity by DVS measurements” value was “hygroscopic”.
